Laboratory results taken from ChEMBL document CHEMBL1201862, “PubChem BioAssay data set” (2004).
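How tested: cells in 96-well plates exposed to compound for 48 hours at five concentrations. The concentration for 50% growth inhibition is given as GI50.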 Activity calls are given as the source filed them. No stated cut-off is given here; in the data, active = GI50 up to about 1.1 µM and inactive = higher.

Key:
Experiment in all cases: DTP human tumour cell line panel, 48 h
CCRF-CEM = tested on: CCRF-CEM
EKVX = tested on: EKVX
HCT-15 = tested on: HCT-15
HOP-62 = tested on: HOP-62
HT-29 = tested on: HT-29
K562 = tested on: K562
LOX IMVI = tested on: LOX IMVI
MDA-MB-231 = tested on: MDA-MB-231
MOLT-4 = tested on: MOLT-4
OVCAR-4 = tested on: OVCAR-4
OVCAR-8 = tested on: OVCAR-8
RPMI-8226 = tested on: RPMI-8226
SF-268 = tested on: SF-268
SF-295 = tested on: SF-295
SF-539 = tested on: SF-539
SK-OV-3 = tested on: SK-OV-3
SN12C = tested on: SN12C
T47D = tested on: T47D
HOP-92 = tested on: HOP-92
MCF7 = tested on: MCF7

SMILES | GI50 (CCRF-CEM) | GI50 (EKVX) | GI50 (HCT-15) | GI50 (HOP-62) | GI50 (HT-29) | GI50 (K562) | GI50 (LOX IMVI) | GI50 (MDA-MB-231) | GI50 (MOLT-4) | GI50 (OVCAR-4) | GI50 (OVCAR-8) | GI50 (RPMI-8226) | GI50 (SF-268) | GI50 (SF-295) | GI50 (SF-539) | GI50 (SK-OV-3) | GI50 (SN12C) | GI50 (T47D) | GI50 (HOP-92) | GI50 (MCF7)
O=c1[nH]c(=O)n([C@@H]2O[C@H](CO)[C@@H](O)[C@H]2O)cc1F [5-FLUOROURIDINE] | 0.057 µM (active) | 37.2 µM (inactive) | 0.0367 µM | 0.171 µM (active) | 0.0407 µM (active) | 0.0212 µM (active) | 0.0556 µM (active) | 1.63 µM (inactive) | 0.0861 µM (active) | 0.521 µM (active) | 0.056 µM (active) | 0.126 µM (active) | 0.0716 µM (active) | 0.145 µM (active) | 0.0375 µM (active) | 5.66 µM (inactive) | 0.0603 µM (active) | 0.114 µM (active) | – | –
N#C/C(=C\c1ccc2[nH]ccc2c1)C(=O)c1ccc(O)c(O)c1 | 24.5 µM (inactive) | 57.9 µM (inactive) | 51.4 µM | > 52 µM (inactive) | 69 µM (inactive) | 48.4 µM (inactive) | 63.7 µM (inactive) | – | 44.7 µM (inactive) | > 64.3 µM (inactive) | > 100 µM (inactive) | > 73.5 µM (inactive) | > 64.9 µM (inactive) | 61.4 µM (inactive) | > 57.4 µM (inactive) | 59.4 µM (inactive) | > 82.4 µM (inactive) | 62.8 µM (inactive) | 53 µM (inactive) | 34.8 µM (inactive)
COc1cc(C2S/C(=C/c3ccccc3)C(=O)N2c2ccc(Cl)cc2)cc(OC)c1OC (stereo not drawn) | 4.4 µM (inactive) | 23.8 µM (inactive) | 9.51 µM | 14.2 µM (inactive) | 23.8 µM (inactive) | – | 6.03 µM (inactive) | > 43.9 µM (inactive) | 5.79 µM (inactive) | 4.71 µM (inactive) | 22.1 µM (inactive) | 8.18 µM (inactive) | 8.24 µM (inactive) | 7.64 µM (inactive) | – | > 20.1 µM (inactive) | 39.1 µM (inactive) | 0.705 µM (active) | 5.92 µM (inactive) | 3.09 µM (inactive)
CCC(C)(C)/C(CC(O)(C(F)(F)F)C(F)(F)F)=N\O | > 100 µM (inactive) | > 100 µM (inactive) | > 100 µM | > 100 µM (inactive) | > 100 µM (inactive) | > 100 µM (inactive) | > 100 µM (inactive) | > 100 µM (inactive) | > 100 µM (inactive) | > 100 µM (inactive) | – | > 100 µM (inactive) | > 100 µM (inactive) | > 100 µM (inactive) | > 100 µM (inactive) | > 100 µM (inactive) | > 100 µM (inactive) | > 100 µM (inactive) | > 100 µM (inactive) | –
Nc1nc(-c2ccccc2)nc2c1[n+]([O-])c1ccccc1[n+]2[O-] | > 100 µM (inactive) | > 100 µM (inactive) | > 100 µM | > 100 µM (inactive) | > 100 µM (inactive) | > 100 µM (inactive) | > 100 µM (inactive) | > 100 µM (inactive) | – | – | > 100 µM (inactive) | > 100 µM (inactive) | > 100 µM (inactive) | > 100 µM (inactive) | > 100 µM (inactive) | > 100 µM (inactive) | > 100 µM (inactive) | > 100 µM (inactive) | – | > 100 µM (inactive)
CCC(=O)C(c1ccccc1)c1ccccn1 (stereo not drawn) | > 100 µM (inactive) | > 100 µM (inactive) | > 100 µM | > 100 µM (inactive) | > 100 µM (inactive) | – | > 100 µM (inactive) | > 100 µM (inactive) | – | > 100 µM (inactive) | > 100 µM (inactive) | > 100 µM (inactive) | > 100 µM (inactive) | > 100 µM (inactive) | – | > 100 µM (inactive) | > 100 µM (inactive) | > 100 µM (inactive) | > 100 µM (inactive) | > 100 µM (inactive)
CC(=O)[C@]12OC(=O)C3=C1[C@H](CC[C@@H]3C)[C@@H](C)C[C@H]2C=C(C)C | 9.44 µM (inactive) | – | 7.96 µM | 8.61 µM (inactive) | 6.79 µM (inactive) | 5.6 µM (inactive) | 7.93 µM (inactive) | 8.2 µM (inactive) | 10 µM (inactive) | – | 8.49 µM (inactive) | 7.26 µM (inactive) | 8.47 µM (inactive) | 6.4 µM (inactive) | 9.14 µM (inactive) | 11 µM (inactive) | 8.69 µM (inactive) | 6.44 µM (inactive) | 1.43 µM (inactive) | 8.85 µM (inactive)
CCOC(=O)C1(C(=O)OCC)CCCN1C(=O)[C@H](CNC(=O)OC(C)(C)C)NC(=O)OCc1ccccc1 | 17.4 µM (inactive) | > 100 µM (inactive) | > 100 µM | > 100 µM (inactive) | > 100 µM (inactive) | 32.8 µM (inactive) | > 100 µM (inactive) | > 100 µM (inactive) | 27.8 µM (inactive) | > 100 µM (inactive) | – | 31.3 µM (inactive) | > 100 µM (inactive) | > 100 µM (inactive) | > 100 µM (inactive) | > 100 µM (inactive) | > 100 µM (inactive) | > 100 µM (inactive) | – | > 100 µM (inactive)
CCOc1ccc(N/C(=C(/C(Cl)=C(/Cl)NCCO)[N+](=O)[O-])n2nnc3ccccc32)cc1 | 5.57 µM (inactive) | 25.2 µM (inactive) | 20.5 µM | 66.7 µM (inactive) | 29.9 µM (inactive) | 20.8 µM (inactive) | – | 20.6 µM (inactive) | 5.96 µM (inactive) | 16.7 µM (inactive) | 18.3 µM (inactive) | 30.7 µM (inactive) | 20.1 µM (inactive) | 28 µM (inactive) | 34.5 µM (inactive) | 12.8 µM (inactive) | 19.8 µM (inactive) | 18.2 µM (inactive) | – | 19 µM (inactive)
CC(C)=CCc1c(OC(=O)c2c(C)cc(O)cc2O)cc(CO)c(CO)c1O | > 10 µM (inactive) | 32.4 µM (inactive) | 17.7 µM | – | 21.2 µM (inactive) | 7.62 µM (inactive) | 16.2 µM (inactive) | 15.5 µM (inactive) | 16.3 µM (inactive) | 16 µM (inactive) | 25 µM (inactive) | – | 26.7 µM (inactive) | 17.2 µM (inactive) | 18.6 µM (inactive) | 16.2 µM (inactive) | 18.5 µM (inactive) | 6.85 µM (inactive) | 17.7 µM (inactive) | 24 µM (inactive)
O=c1oc(-c2ccc(O)cc2)cc2cc(O)ccc12 | 20.4 µM (inactive) | 31.9 µM (inactive) | 43.2 µM | 34.8 µM (inactive) | – | 13.2 µM (inactive) | – | – | 18.5 µM (inactive) | 32.7 µM (inactive) | 41.9 µM (inactive) | 48.8 µM (inactive) | 26.5 µM (inactive) | 39.4 µM (inactive) | 32.2 µM (inactive) | 26.3 µM (inactive) | 17.2 µM (inactive) | 19.9 µM (inactive) | 21.7 µM (inactive) | 20.6 µM (inactive)
Cc1c(O)c(OC2OC(CO)C(O)C(O)C2O)cc2c1CC[C@@H]1C2(C)C(=O)C[C@]2(C)[C@@H]([C@@](C)(O)C(O)/C=C/C(C)(C)O)[C@H](O)C[C@@]12C (stereo partly drawn) | > 100 µM (inactive) | > 100 µM (inactive) | > 100 µM | > 100 µM (inactive) | > 100 µM (inactive) | > 100 µM (inactive) | > 100 µM (inactive) | > 100 µM (inactive) | > 100 µM (inactive) | > 100 µM (inactive) | > 100 µM (inactive) | – | > 100 µM (inactive) | > 100 µM (inactive) | > 100 µM (inactive) | > 100 µM (inactive) | > 100 µM (inactive) | > 100 µM (inactive) | > 100 µM (inactive) | > 100 µM (inactive)
Cc1cc(N(CCC#N)CCC#N)ccc1/C=N/NC(=O)c1cc(Cl)ccc1O | > 100 µM (inactive) | > 100 µM (inactive) | > 100 µM | 60.3 µM (inactive) | > 100 µM (inactive) | – | – | > 100 µM (inactive) | 36.9 µM (inactive) | > 100 µM (inactive) | > 100 µM (inactive) | – | 72.6 µM (inactive) | 54.7 µM (inactive) | > 100 µM (inactive) | > 100 µM (inactive) | > 100 µM (inactive) | > 100 µM (inactive) | – | > 100 µM (inactive)
O=C(/N=N/c1ccc([N+](=O)[O-])cc1)NNc1ccc([N+](=O)[O-])cc1 | 15.8 µM (inactive) | – | 19.2 µM | 13.3 µM (inactive) | 31.3 µM (inactive) | 11.4 µM (inactive) | 11.2 µM (inactive) | 24 µM (inactive) | 11 µM (inactive) | 18.1 µM (inactive) | 17.2 µM (inactive) | 14.3 µM (inactive) | 21.8 µM (inactive) | – | – | – | 13.3 µM (inactive) | 9.14 µM (inactive) | – | 4.58 µM (inactive)
NC(=O)NNC(=O)c1nc[nH]c1[N+](=O)[O-] | > 100 µM (inactive) | > 100 µM (inactive) | > 100 µM | > 100 µM (inactive) | > 100 µM (inactive) | > 100 µM (inactive) | > 100 µM (inactive) | > 100 µM (inactive) | > 100 µM (inactive) | > 100 µM (inactive) | > 100 µM (inactive) | > 100 µM (inactive) | > 100 µM (inactive) | – | > 100 µM (inactive) | > 100 µM (inactive) | > 100 µM (inactive) | > 100 µM (inactive) | – | > 100 µM (inactive)
Cc1cnc2nc(-c3sccc3C)cc(O)c2c1 | 1.6 µM (inactive) | 7.06 µM (inactive) | 1.57 µM | 5.08 µM (inactive) | 2.4 µM (inactive) | 5.04 µM (inactive) | 7.83 µM (inactive) | 18.1 µM (inactive) | 6.18 µM (inactive) | > 100 µM (inactive) | 4.06 µM (inactive) | – | 10.9 µM (inactive) | 2.26 µM (inactive) | 5.81 µM (inactive) | 4.03 µM (inactive) | 10.2 µM (inactive) | > 100 µM (inactive) | 97.3 µM (inactive) | 2.84 µM (inactive)
